Measured values reported in article doi:10.1101/2024.08.19.608619, “Discovery of potent SARS-CoV-2 nsp3 macrodomain inhibitors uncovers lack of translation to cellular antiviral response” (bioRxiv, 2024).
≈ marks a conversion by molar mass, not a printed value. Where “and” joins values, the source holds several entries; their conditions need not be identical. Equal values may be shown once. Read-outs that look alike come from different tables or passages of the source.

What was measured:
[1] = Permeability Papp (AB) MDR1/MDCKII; details: for papp_a_to_b_mean / papp_b_to_a_mean / perc_recovery_a_to_b_mean / perc_recovery_b_to_a_mean: In vitro MDR1-MDCKII permeability; for papp_b_to_a_mean: B to A; for perc_recovery_a_to_b_mean / perc_recovery_a_to_b_inhibitor_mean: recovery A to B; for perc_recovery_b_to_a_mean / perc_recovery_b_to_a_inhibitor_mean: recovery B to A; for perc_recovery_a_to_b_inhibitor_mean / perc_recovery_b_to_a_inhibitor_mean: MDR1-MDCKII, with inhibitor Cyclosporin A
JAK2(h) = JAK2(h) (Homo sapiens, UniProt O60674); assay: biochemical; set-up: In vitro kinase panel profiling, per cent remaining kinase activity at 10 uM; details: atp_concentration=45, read-out: % of control remaining
From the text: (§1) We derisk potential for off-target activity by profiling the compound in a CEREP panel, a standard secondary pharmacology assessment, as well as a kinase panel to derisk a potential hinge-binding motif in our leads, and a PARP panel to derisk activity against human […]. Reassuringly, the compounds are selective, with the only off-targets being moderate human CHRM2 and KOR receptors activity associated with ASAP-0011198.

Pim-1(h) = biological target: T1, Pim-1(h) (Homo sapiens, UniProt P11309); assay: biochemical; set-up: In vitro kinase panel profiling, per cent remaining kinase activity at 10 uM; details: atp_concentration=90, read-out: % of control remaining
T1 construct: gene PIM1
T1 sequence (P11309 whole entry): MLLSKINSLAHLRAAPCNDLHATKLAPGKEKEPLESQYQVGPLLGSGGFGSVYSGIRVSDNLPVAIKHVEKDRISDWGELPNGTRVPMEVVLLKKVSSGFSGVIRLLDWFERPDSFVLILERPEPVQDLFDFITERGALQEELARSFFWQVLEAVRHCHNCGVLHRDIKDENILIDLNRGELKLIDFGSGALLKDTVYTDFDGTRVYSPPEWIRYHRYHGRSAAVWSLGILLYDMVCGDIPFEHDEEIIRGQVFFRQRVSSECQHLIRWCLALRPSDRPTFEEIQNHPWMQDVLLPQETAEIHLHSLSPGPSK
From the text: as §1

KDR(h) = KDR(h) (Homo sapiens, UniProt P35968); assay: biochemical; set-up: In vitro kinase panel profiling, per cent remaining kinase activity at 10 uM; details: atp_concentration=90, read-out: % of control remaining
Sequence of KDR(h) (P35968 whole entry): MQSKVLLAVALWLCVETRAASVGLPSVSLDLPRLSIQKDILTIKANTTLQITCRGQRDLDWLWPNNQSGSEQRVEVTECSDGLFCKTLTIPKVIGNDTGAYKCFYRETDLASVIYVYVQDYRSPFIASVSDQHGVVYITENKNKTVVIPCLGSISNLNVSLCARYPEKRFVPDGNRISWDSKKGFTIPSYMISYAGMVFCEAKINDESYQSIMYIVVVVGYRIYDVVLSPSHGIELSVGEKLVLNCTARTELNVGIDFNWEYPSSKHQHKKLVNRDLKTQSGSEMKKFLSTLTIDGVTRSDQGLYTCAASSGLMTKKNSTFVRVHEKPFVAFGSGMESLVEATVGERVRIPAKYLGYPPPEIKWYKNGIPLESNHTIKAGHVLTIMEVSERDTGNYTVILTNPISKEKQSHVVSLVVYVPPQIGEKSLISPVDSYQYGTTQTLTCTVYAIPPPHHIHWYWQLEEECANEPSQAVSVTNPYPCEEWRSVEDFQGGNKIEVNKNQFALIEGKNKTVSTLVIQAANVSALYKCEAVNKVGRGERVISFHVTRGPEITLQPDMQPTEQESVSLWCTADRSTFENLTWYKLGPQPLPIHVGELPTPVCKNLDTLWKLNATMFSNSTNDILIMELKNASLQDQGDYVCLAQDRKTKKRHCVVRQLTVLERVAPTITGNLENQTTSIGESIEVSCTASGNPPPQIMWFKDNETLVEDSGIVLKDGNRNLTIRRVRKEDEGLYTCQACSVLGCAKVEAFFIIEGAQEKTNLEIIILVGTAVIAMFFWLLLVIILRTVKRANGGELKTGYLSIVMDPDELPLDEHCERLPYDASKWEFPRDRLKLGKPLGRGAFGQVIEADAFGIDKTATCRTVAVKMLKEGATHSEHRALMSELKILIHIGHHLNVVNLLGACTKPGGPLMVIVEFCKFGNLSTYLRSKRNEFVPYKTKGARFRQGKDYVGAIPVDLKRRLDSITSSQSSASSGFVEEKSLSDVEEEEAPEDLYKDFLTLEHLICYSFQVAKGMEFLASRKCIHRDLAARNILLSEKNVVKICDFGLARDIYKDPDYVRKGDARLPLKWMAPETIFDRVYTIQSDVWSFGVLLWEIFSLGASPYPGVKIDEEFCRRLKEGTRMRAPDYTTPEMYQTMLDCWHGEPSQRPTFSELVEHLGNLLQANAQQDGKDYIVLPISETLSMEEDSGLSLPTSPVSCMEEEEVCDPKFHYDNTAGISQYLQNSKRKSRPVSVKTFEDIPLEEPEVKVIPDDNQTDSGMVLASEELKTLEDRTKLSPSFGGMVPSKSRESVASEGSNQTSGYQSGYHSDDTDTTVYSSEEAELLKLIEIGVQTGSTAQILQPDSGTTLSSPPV
From the text: as §1

ROCK-I(h) = biological target: T2, ROCK-I(h) (Homo sapiens, UniProt Q13464); assay: biochemical; set-up: In vitro kinase panel profiling, per cent remaining kinase activity at 10 uM; details: atp_concentration=70, read-out: % of control remaining
T2 construct: gene ROCK1
T2 sequence (Q13464 whole entry): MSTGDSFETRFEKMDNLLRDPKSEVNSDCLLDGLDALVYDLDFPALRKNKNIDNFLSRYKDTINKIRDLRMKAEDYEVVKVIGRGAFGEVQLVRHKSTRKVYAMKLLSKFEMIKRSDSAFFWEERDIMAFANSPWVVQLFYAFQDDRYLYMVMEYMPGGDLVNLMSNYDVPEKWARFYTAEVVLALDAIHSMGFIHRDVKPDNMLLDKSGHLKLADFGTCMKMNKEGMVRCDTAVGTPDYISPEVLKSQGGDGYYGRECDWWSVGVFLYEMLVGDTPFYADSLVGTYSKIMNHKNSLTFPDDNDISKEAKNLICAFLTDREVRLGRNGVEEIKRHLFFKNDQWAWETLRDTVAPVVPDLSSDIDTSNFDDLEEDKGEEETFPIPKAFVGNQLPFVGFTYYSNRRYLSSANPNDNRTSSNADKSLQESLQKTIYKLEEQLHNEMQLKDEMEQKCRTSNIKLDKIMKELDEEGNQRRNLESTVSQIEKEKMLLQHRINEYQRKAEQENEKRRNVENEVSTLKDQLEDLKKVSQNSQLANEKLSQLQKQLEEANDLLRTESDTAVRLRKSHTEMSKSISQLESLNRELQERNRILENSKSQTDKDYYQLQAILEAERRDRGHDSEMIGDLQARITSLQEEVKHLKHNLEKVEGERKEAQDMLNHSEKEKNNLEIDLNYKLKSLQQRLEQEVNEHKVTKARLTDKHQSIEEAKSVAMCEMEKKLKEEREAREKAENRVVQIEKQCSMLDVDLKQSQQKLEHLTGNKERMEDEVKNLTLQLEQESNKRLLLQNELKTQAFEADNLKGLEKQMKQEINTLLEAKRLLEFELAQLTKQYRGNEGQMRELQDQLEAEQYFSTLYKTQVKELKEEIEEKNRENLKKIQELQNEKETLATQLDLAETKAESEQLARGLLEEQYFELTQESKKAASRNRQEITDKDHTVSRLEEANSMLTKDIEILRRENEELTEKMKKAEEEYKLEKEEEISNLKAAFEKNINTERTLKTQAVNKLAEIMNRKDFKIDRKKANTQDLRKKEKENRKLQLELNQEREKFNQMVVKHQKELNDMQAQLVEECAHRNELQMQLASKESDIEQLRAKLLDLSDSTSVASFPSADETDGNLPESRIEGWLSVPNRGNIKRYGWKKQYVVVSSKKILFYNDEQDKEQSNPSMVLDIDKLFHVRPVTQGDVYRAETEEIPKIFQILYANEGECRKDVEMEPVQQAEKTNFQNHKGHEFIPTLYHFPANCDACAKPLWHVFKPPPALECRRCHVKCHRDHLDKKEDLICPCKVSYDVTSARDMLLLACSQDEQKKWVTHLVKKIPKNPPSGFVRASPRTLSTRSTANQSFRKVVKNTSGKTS
From the text: as §1

p70S6K(h) = biological target: T3, p70S6K(h) (Homo sapiens, UniProt P23443); assay: biochemical; set-up: In vitro kinase panel profiling, per cent remaining kinase activity at 10 uM; details: atp_concentration=15, read-out: % of control remaining
T3 construct: gene RPS6KB1
T3 sequence (P23443 whole entry): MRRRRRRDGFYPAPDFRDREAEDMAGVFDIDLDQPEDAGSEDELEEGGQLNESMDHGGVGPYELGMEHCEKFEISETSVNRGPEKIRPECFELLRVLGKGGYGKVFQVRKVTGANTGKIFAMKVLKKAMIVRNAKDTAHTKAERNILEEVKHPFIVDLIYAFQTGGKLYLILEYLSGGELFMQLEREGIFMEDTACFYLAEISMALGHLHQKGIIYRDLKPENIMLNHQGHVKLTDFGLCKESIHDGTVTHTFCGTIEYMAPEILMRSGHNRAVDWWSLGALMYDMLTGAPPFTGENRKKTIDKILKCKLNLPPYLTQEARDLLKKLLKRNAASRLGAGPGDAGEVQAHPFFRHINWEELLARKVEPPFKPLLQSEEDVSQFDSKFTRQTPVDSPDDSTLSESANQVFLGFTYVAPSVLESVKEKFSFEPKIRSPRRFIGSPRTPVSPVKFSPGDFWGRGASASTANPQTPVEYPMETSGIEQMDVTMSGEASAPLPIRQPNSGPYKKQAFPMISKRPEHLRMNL
From the text: as §1

MSK2(h) = biological target: T4, MSK2(h) (Homo sapiens, UniProt O75676); assay: biochemical; set-up: In vitro kinase panel profiling, per cent remaining kinase activity at 10 uM; details: atp_concentration=45, read-out: % of control remaining
T4 construct: gene RPS6KA4
T4 sequence (O75676 whole entry): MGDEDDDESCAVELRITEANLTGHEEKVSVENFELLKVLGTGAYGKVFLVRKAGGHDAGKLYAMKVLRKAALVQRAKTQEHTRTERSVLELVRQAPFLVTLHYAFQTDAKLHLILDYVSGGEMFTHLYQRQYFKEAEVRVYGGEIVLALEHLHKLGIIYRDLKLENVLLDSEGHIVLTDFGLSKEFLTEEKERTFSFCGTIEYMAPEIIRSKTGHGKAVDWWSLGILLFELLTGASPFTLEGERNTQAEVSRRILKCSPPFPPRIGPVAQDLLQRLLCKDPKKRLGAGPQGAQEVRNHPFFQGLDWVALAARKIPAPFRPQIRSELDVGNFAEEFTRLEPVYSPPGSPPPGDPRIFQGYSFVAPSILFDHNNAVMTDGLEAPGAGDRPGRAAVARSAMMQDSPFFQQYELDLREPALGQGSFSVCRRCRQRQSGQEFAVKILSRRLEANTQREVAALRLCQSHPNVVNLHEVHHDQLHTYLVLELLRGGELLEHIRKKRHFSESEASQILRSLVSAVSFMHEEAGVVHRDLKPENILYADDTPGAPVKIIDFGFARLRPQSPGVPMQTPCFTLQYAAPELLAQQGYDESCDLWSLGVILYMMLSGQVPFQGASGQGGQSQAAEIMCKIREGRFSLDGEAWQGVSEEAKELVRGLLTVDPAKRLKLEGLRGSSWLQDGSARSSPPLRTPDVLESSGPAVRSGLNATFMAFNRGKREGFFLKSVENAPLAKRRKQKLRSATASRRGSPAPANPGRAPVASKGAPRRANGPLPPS
From the text: as §1

Plk3(h) = Plk3(h) (Homo sapiens, UniProt Q9H4B4); assay: biochemical; set-up: In vitro kinase panel profiling, per cent remaining kinase activity at 10 uM; details: atp_concentration=70, read-out: % of control remaining
Sequence of Plk3(h) (Q9H4B4 whole entry): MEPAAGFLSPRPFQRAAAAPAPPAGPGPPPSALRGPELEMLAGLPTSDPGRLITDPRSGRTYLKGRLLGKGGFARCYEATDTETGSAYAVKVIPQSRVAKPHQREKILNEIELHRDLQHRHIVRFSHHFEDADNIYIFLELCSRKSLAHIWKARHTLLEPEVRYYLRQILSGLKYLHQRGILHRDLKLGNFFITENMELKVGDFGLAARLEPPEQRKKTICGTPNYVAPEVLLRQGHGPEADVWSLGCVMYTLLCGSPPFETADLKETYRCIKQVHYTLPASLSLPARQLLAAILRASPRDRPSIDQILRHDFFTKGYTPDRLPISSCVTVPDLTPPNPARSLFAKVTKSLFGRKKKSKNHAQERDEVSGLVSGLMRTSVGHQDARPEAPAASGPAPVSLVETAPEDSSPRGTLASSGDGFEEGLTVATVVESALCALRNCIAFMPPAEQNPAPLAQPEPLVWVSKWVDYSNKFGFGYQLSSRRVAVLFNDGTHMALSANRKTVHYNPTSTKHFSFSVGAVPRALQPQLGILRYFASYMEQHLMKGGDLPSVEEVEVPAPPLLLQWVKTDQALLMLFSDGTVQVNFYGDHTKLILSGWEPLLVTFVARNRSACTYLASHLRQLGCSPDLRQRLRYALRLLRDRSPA
From the text: as §1

PRAK(h) = biological target: T5, PRAK(h) (Homo sapiens, UniProt Q8IW41); assay: biochemical; set-up: In vitro kinase panel profiling, per cent remaining kinase activity at 10 uM; details: atp_concentration=15, read-out: % of control remaining
T5 construct: gene MAPKAPK5
T5 sequence (Q8IW41 1-473): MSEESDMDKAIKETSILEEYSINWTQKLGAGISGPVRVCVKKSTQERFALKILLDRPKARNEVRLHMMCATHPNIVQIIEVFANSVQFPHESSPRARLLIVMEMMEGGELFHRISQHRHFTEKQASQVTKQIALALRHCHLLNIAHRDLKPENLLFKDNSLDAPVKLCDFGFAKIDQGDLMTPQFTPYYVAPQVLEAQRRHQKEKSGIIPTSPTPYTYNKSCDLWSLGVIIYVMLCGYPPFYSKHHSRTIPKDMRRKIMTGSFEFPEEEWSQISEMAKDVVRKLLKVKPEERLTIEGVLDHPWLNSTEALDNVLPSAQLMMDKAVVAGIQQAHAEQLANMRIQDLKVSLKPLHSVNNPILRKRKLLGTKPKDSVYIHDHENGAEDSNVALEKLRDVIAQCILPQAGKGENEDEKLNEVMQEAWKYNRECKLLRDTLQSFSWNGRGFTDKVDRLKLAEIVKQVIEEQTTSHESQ
From the text: as §1

CDK9/cyclin T1(h) = CDK9/cyclin T1(h) (Homo sapiens, UniProt P50750); assay: biochemical; set-up: In vitro kinase panel profiling, per cent remaining kinase activity at 10 uM; details: atp_concentration=45, read-out: % of control remaining
From the text: as §1

CDK7/cyclinH/MAT1(h) = CDK7/cyclinH/MAT1(h) (Homo sapiens, UniProt P50613); assay: biochemical; set-up: In vitro kinase panel profiling, per cent remaining kinase activity at 10 uM; details: atp_concentration=90, read-out: % of control remaining
From the text: as §1

IKKα(h) = biological target: T6, IKKα(h) (Homo sapiens, UniProt O15111); assay: biochemical; set-up: In vitro kinase panel profiling, per cent remaining kinase activity at 10 uM; details: atp_concentration=10, read-out: % of control remaining
T6 construct: gene CHUK
T6 sequence (O15111 1-745): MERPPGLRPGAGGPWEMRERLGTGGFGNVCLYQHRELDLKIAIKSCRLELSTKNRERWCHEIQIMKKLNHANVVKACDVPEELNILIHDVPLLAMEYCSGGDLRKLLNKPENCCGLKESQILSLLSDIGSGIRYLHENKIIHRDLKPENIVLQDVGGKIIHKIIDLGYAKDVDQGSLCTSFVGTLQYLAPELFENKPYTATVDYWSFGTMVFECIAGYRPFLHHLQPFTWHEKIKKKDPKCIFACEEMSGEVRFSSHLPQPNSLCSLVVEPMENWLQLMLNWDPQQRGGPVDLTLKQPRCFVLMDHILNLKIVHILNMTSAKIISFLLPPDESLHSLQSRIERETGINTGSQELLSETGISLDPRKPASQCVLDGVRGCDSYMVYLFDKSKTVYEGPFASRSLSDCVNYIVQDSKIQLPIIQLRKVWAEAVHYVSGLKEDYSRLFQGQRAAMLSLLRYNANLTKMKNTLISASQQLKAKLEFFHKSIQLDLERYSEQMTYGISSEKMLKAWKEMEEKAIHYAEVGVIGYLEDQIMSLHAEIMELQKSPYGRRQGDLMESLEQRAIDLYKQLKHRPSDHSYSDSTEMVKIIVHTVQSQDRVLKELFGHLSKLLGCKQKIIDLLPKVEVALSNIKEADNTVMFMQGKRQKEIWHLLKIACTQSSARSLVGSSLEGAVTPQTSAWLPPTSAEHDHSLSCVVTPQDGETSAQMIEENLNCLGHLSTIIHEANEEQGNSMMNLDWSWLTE
From the text: as §1

[2] = In vitro kinetic solubility

CC(C)C(Nc1ncnc2[nH]c(C(=O)NC3CCN(C)C3)cc12)c1ccc2c(c1)S(=O)(=O)CCC2 (centres unmarked) [ASAP-0011198]
papp_a_to_b_mean ([1]; A to B, no inhibitor): 0.0631 ×10⁻⁶ cm/s
papp_b_to_a_mean ([1]; no inhibitor): 0.0474 ×10⁻⁶ cm/s
perc_recovery_a_to_b_mean ([1]; mean): 94.6%
perc_recovery_a_to_b_mean ([1]; no inhibitor): 86.2% and 71.8%
perc_recovery_b_to_a_mean ([1]; no inhibitor): 93.1% and 82.5%
perc_recovery_a_to_b_inhibitor_mean [1]: 100.0% and 74.6%
perc_recovery_b_to_a_inhibitor_mean [1]: 100.0% and 87.0%
Papp A→B ([1]; dog, MDCK-MDR1, Papp (AB) MDR1/MDCKII, A to B): 2.9 ×10⁻⁶ cm/s
remaining activity at 10 µM (JAK2(h); batch_name=ASAP-0011198-002): 106%
remaining activity at 10 µM (Pim-1(h); batch_name=ASAP-0011198-002): 97%
remaining activity at 10 µM (KDR(h); batch_name=ASAP-0011198-002): 96%
remaining activity at 10 µM (ROCK-I(h); batch_name=ASAP-0011198-002): 98%
remaining activity at 10 µM (p70S6K(h); batch_name=ASAP-0011198-002): 104%
remaining activity at 10 µM (MSK2(h); batch_name=ASAP-0011198-002): 93%
remaining activity at 10 µM (Plk3(h); batch_name=ASAP-0011198-002): 98%
remaining activity at 10 µM (PRAK(h); batch_name=ASAP-0011198-002): 111%
remaining activity at 10 µM (CDK9/cyclin T1(h); batch_name=ASAP-0011198-002): 108%
remaining activity at 10 µM (CDK7/cyclinH/MAT1(h); batch_name=ASAP-0011198-002): 101%
remaining activity at 10 µM (IKKα(h); batch_name=ASAP-0011198-002): 82%
solubility kinetic [2]: 392 µM (≈ 195 µg/mL)
solubility ([2]; pH 7.4): 392 µM (≈ 195 µg/mL)
logd (LogD): 1.6
logd (LogD; pH 7.4): 1.6

Cn1ncc(-c2cc3c(N[C@@H](c4ccc5c(n4)OCCO5)C(C)(C)C)ncnc3[nH]2)c1C#N [ASAP-0011221]
papp_a_to_b_mean ([1]; A to B, mean): 14.0 ×10⁻⁶ cm/s
papp_a_to_b_mean ([1]; A to B, no inhibitor): 2.76 ×10⁻⁶ cm/s
papp_b_to_a_mean ([1]; no inhibitor): 5.51 ×10⁻⁶ cm/s
perc_recovery_a_to_b_mean ([1]; mean): 84.8%
perc_recovery_a_to_b_mean ([1]; no inhibitor): 94.8%
perc_recovery_b_to_a_mean ([1]; no inhibitor): 101.0%
perc_recovery_a_to_b_inhibitor_mean [1]: 61.6%
perc_recovery_b_to_a_inhibitor_mean [1]: 62.4%
remaining activity at 10 µM (JAK2(h); batch_name=ASAP-0011221-002): 140%
remaining activity at 10 µM (Pim-1(h); batch_name=ASAP-0011221-002): 107%
remaining activity at 10 µM (KDR(h); batch_name=ASAP-0011221-002): 83%
remaining activity at 10 µM (ROCK-I(h); batch_name=ASAP-0011221-002): 129%
remaining activity at 10 µM (p70S6K(h); batch_name=ASAP-0011221-002): 108%
remaining activity at 10 µM (MSK2(h); batch_name=ASAP-0011221-002): 122%
remaining activity at 10 µM (Plk3(h); batch_name=ASAP-0011221-002): 77%
remaining activity at 10 µM (PRAK(h); batch_name=ASAP-0011221-002): 86%
remaining activity at 10 µM (CDK9/cyclin T1(h); batch_name=ASAP-0011221-002): 130%
remaining activity at 10 µM (CDK7/cyclinH/MAT1(h); batch_name=ASAP-0011221-002): 108%
remaining activity at 10 µM (IKKα(h); batch_name=ASAP-0011221-002): 125%
solubility_mean ([2]; In vitro kinetic solubility, ph 7.4): 24 µM (≈ 10.7 µg/mL)
logd (LogD; pH 7.4, In vitro LogD): 3.3
